The text below walks through data of PMC7482845, “G10 is a direct activator of human STING” (PLoS ONE, 2020).

Assay [1] addresses T1, R232 variant of human STING (Homo sapiens, UniProt Q86WV6, H232R).
T1 construct: the ER fraction from R232.STING transfected HEK293T cells which contained full length STING
Nature of the assay: Luciferase (ISRE.ISG reporter) assay in HEK293T cells stably expressing R232 hSTING. The settings on record: for EC50: HEK293T cells expressing R232 hSTING, luciferase reporter, read-out: HEK.R232 EC50; for activity against R232 STING, in words: HEK.R232 cellular assay. Format: cell-based. An excerpt: (§1) • a) Stable STING expressing cells. Stable HEK293T STING-expressing cell lines were generated using plasmids purchased from Invivogen, CA, USA, that contain STING cDNA cloned into the pUNO-1 vector under the hEF1-HTLV promoter as well as the Blasticidin selection cassette. The human STING plasmids corresponding to the R232, H232 and HAQ variants were directly procured from Invivogen while the AQ and Q variants were created by mismatch PCR using cDNA from HAQ.STING and R232.STING variants respectively. These vectors were individually transfected into HEK293T cells using Lipofectamine (Invitrogen) and transfected cells were expanded under Blasticidin selection. These cells were further subjected to clonal selection using the limiting dilution method to obtain clonally pure populations of HEK293T cells expressing each of the five human STING variants. Clones with minimal ligand independent activation of STING were chosen for cellular experiments. • b) N-His R232.hSTING HEK293T cells. HEK293T cells stably expressing N-His R232.hSTING were generated by the following described method. N-His R232.hSTING.pcDNA Myc B plasmid was transfected into HEK293T cells using Lipofectamine reagent (Invitrogen) and the transfected cells were selected under Hygromycin. Stably STING expressing HEK293T cells thus selected were further subjected to single cell clonal selection using the limiting dilution method to obtain a clonally pure population of HEK293T cells expressing the human R232 STING variant.
[…] clonally selected HEK293T-hSTING-Luciferase cells or control HEK293T-Luciferase cells were seeded in 384-well plates in growth medium and stimulated with known STING agonists or novel compounds. […]
On the technique in general: A reporter such as luciferase makes a cellular process visible.

Another assay concerns the target T2, HAQ STING (THP-1 cells) (Homo sapiens, UniProt Q86WV6, G230A/R293Q/R71H).
T2 construct: THP1 cells constitutively express the HAQ variant of human STING; host or cells: THP-1
Kind of assay: THP1 cellular assay (EC50). The class given is cell-based. The settings on record: for THP-1 EC50 / EC50: THP-1 cells (HAQ STING); for activation of THP1 cells, in words: THP1 cellular assay.

Assay [2] deals with T3, recombinant CTT domain of R232 STING (Homo sapiens, UniProt Q86WV6, H232R).
T3 construct: corresponding to the soluble domain of STING (138 to 379 aa) protein; purchased Cayman Chemicals (STING); Invitrogen (TBK1) 22816 (STING); A31514 (TBK1)
Nature of the assay: In vitro kinase assay, recombinant CTT domain of R232 STING plus recombinant TBK1. The class given is biochemical. The settings on record: STING source not stated (S3 Fig). The method, then: 50ng of recombinant STING protein (Cayman Chemicals Cat# 22816) corresponding to the soluble domain of STING (138 to 379 aa) protein or 1 μl of ER fraction (8mg/ml) containing full length STING from R232.hSTING was incubated with 20 ng of recombinant full length TBK1 protein (Invitrogen, Cat# A31514) in the presence/absence of test compound in 20 μl reaction buffer (50mM Tris-HCl of pH 7.4, 100mM NaCl, 5mM MgCl2, 5mM MnCl2, 10% glycerol, 0.2mM Na3VO4, 20mM β-glycero-PO4, 0.5mM ATP) and 0.01% BSA at 30 °C for 45 min. The reaction was quenched by addition of 2 μl of 10X EDTA to a final concentration of […]. Samples were treated with 4x gel loading dye followed by electrophoresis in 10% SDS-PAGE gels and transferred to Immobilon-P membranes (Millipore). […] Anti-rabbit HRP labelled secondary antibody (Abcam) and Clarity Max™ western ECL substrate (Biorad, Cat# 1705062) were used for visualization of bands using a BioRad XRS plus imager.

The subject of assay [3] is multiple STING variants overexpressed in HEK293T cells. Kind of assay: Luciferase reporter assay of STING variants overexpressed in HEK293T cells (Compound 8). The conditions noted are these: HEK293T cells (S4 Fig). The class given is cell-based, human.
Description: as §1, with “HEK293T cells stably expressing N-His R232.hSTING were generated by the following described method. N-His R232.hSTING.pcDNA Myc B plasmid was transfected into HEK293T cells using Lipofectamine reagent (Invitrogen) and the transfected cells were selected under Hygromycin. Stably STING expressing HEK293T cells thus selected were further subjected to single cell clonal selection using the limiting dilution method to obtain a clonally pure population of HEK293T cells expressing the human R232 STING variant.” left out
5 x 10^5 clonally selected HEK293T-hSTING-Luciferase cells or control HEK293T-Luciferase cells were seeded in 384-well plates in growth medium and stimulated with known STING agonists or novel compounds. Supernatants were removed after 20 hours of treatment and secretory reporter gene activity was measured using the Quanti-Luc detection system (Invivogen) on a Spectramax i3X luminometer.

Assay [4] concerns Human STING variants (HEK293T cells). Kind of assay: Phosphorylation of STING variants overexpressed in HEK293T cells (Compound 8). The class given is cell-based. The conditions noted are these: HEK293T cells (S5 Fig). The method, then:
5 x 10^5 cells were seeded in 24-well plates in 500 μl growth medium and stimulated with novel compounds at 10μM. After 2 hours of treatment cells were harvested by centrifugation and cell pellets were lysed in RIPA buffer (20mM Tris-Cl, 150mM NaCl, 0.5mM EDTA, 1% NP40, 0.05% SDS) containing 1x phosphatase inhibitor cocktail 3 (Sigma) and 1x protease inhibitor (Roche) to extract the soluble fraction of protein. 10 μg of extracted protein was electrophoresed in 10% SDS-PAGE gels and transferred onto Immobilon-P membranes (Millipore). […] Anti-rabbit HRP label secondary antibody (Abcam) and Clarity Max™ western ECL substrate (Biorad—cat# 1705062) were used for visualization of bands using a BioRad XRS plus imager.

A further assay concerns the target T4, STING in human PBMCs (Homo sapiens, UniProt Q86WV6).
T4 construct: endogenous in cells; host or cells: human PBMCs, multiple donors
Kind of assay: Phosphorylation of STING in human PBMCs. Format: cell-based. The conditions noted are these: multiple donors (S6 Fig).

Assay [5] addresses T5, STING in human tumor lines (Homo sapiens, UniProt Q86WV6).
T5 construct: endogenous in cells
Kind of assay: Phosphorylation of STING in human tumor lines. The conditions noted are these: S7 Fig. Format: cell-based.

The next assay relates to human STING. The arrangement: method as in PMID 23585680. The conditions noted are these: any variant of human STING; cited from earlier work.

T1 sequence (Q86WV6 whole entry H232R): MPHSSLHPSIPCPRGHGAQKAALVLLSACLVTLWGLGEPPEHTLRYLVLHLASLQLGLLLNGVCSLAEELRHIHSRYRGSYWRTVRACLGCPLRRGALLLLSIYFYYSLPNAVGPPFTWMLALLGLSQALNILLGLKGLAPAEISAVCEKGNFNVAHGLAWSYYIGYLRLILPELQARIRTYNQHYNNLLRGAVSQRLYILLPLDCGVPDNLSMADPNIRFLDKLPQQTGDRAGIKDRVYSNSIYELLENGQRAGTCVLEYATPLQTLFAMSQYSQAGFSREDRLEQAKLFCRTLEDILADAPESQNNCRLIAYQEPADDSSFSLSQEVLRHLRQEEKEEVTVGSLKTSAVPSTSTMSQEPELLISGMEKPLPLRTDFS
T2 sequence (Q86WV6 whole entry R71H/G230A/R293Q): as the sequence (Q86WV6 whole entry H232R) above, with R71H, G230A, R232H, R293Q counted along it
T3 sequence (Q86WV6 138-379 H232R): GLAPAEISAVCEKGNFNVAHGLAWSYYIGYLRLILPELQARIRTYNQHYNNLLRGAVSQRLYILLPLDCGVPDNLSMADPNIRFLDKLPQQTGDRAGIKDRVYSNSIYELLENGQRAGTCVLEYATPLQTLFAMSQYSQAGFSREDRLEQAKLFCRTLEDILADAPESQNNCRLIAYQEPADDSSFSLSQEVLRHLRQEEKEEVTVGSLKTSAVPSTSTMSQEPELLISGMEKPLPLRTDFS
T5 sequence (Q86WV6 whole entry): as the sequence (Q86WV6 whole entry H232R) above, with R232H counted along it
T4 sequence (Q86WV6 whole entry): as the sequence (Q86WV6 whole entry H232R) above, with R232H counted along it

Turning to `O=C(NCc1ccco1)c1ccc2c(c1)N(Cc1c(Cl)cccc1Cl)C(=O)CS2` [Compound 1, 4-(2,6-Dichlorobenzyl)-N-(furan-2-ylmethyl)-3-oxo-3,4-dihydro-2H-benzo[b][1,4]thiazine-6-carboxamide], in assay [1], the EC50 is 2160 nM. Also, the “THP-1 EC50” value on HAQ STING (THP-1 cells) is listed as “Nil @ 30uM”.
As for `O=C(NCc1ccco1)c1ccc2c(c1)N(Cc1c(F)cccc1F)C(=O)CS2` [Compound 2, 4-(2,6-Difluorobenzyl)-N-(furan-2-ylmethyl)-3-oxo-3,4-dihydro-2H-benzo[b][1,4]thiazine-6-carboxamide], the EC50 in assay [1] worked out at 3970 nM. Also, the “THP-1 EC50” value at HAQ STING (THP-1 cells) was “Nil @ 30uM”.
Turning to `O=C(NCc1ccco1)c1ccc2c(c1)N(Cc1ccccc1)C(=O)CS2` [Compound 3, 1-Benzyl-N-(furan-2-ylmethyl)-2-oxo-2,3-dihydro-1H-benzo[b][1,4]thiazine-7-carboxamide], the EC50 in assay [1] stood at 9130 nM. Moreover, on HAQ STING (THP-1 cells), the “THP-1 EC50” value is on record as “Nil @ 30uM”.
For `O=C(NCc1ccc(F)cc1F)c1ccc2c(c1)N(Cc1c(F)cccc1Cl)C(=O)CS2` [Compound 4, 4-(2-Chloro-6-fluorobenzyl)-N-(2,4-difluorobenzyl)-3-oxo-3,4-dihydro-2H-benzo[b][1,4]thiazine-6-carboxamide], the EC50 in assay [1] was 292 nM; at HAQ STING (THP-1 cells) it was above 30000 nM. Besides, the “activation of THP1 cells, in words” value on HAQ STING (THP-1 cells) is on record as “very weak activation”.
In the case of `O=C(NCc1c(F)cc(F)cc1F)c1ccc2c(c1)N(Cc1c(F)cccc1Cl)C(=O)CS2` [Compound 5, 4-(2-Chloro-6-fluorobenzyl)-3-oxo-N-(2,4,6-trifluorobenzyl)-3,4-dihydro-2H-benzo[b][1,4]thiazine-6-carboxamide], the EC50 in assay [1] is 188 nM. At HAQ STING (THP-1 cells), the “activation of THP1 cells, in words” value is recorded as “very weak activation” and the EC50 was above 10000 nM.
Take `COc1cc(F)c(CN2C(=O)CSc3ccc(C(=O)NCc4c(F)cc(F)cc4F)cc32)c(F)c1` [Compound 6, 4-(2,6-Difluoro-4-methoxybenzyl)-3-oxo-N-(2,4,6-trifluorobenzyl)-3,4-dihydro-2H-benzo[b][1,4]thiazine-6-carboxamide]: in assay [1], the EC50 turned out to be 160 nM and the “activity against R232 STING, in words” value was “sharp increases in activity”. The EC50 on HAQ STING (THP-1 cells) is above 10000 nM.
`O=C(NCc1c(F)cc(F)cc1F)c1ccc2c(c1)N(Cc1c(F)cc(O)cc1F)C(=O)CS2` [Compound 7, 4-(2,6-Difluoro-4-hydroxybenzyl)-3-oxo-N-(2,4,6-trifluorobenzyl)-3,4-dihydro-2H-benzo[b][1,4]thiazine-6-carboxamide]: in assay [1], the EC50 is 71.6 nM and the “activity against R232 STING, in words” value is reported as “sharp increases in activity”. Also, at HAQ STING (THP-1 cells), the “activation of THP1 cells, in words” value is listed as “significant activity” and the EC50 worked out at 1380 nM.
On to `CC1Sc2ccc(C(=O)NCc3c(F)cc(F)cc3F)cc2N(Cc2c(F)cccc2Cl)C1=O` (stereo not shown) [Compound 8, 4-(2-Chloro-6-fluorobenzyl)-2-methyl-3-oxo-N-(2,4,6-trifluorobenzyl)-3,4-dihydro-2H-benzo[b][1,4]thiazine-6-carboxamide], for which, in assay [1], the EC50 is 122 nM and the “activity against R232 STING, in words” value was “sub-micromolar activity”. For the same molecule, on HAQ STING (THP-1 cells), the “activation of THP1 cells, in words” value is “sub-micromolar activity” and the EC50 came to 944 nM. Besides, in assay [2], the “activity in the cell-free pSTING assay” value is given as “confirmed activity”. Further, in assay [3], the “activation of multiple STING variants, luciferase reporter assay” value is on record as “activated”. Moreover, the “phosphorylation of human STING variants” value in assay [4] is given as “phosphorylated”. Further, the “phosphorylation of STING in human PBMCs” value on STING in human PBMCs was “phosphorylated STING”. Besides, the “phosphorylation of STING in human tumor lines” value in assay [5] is “phosphorylated STING”.
In the case of `CC1Sc2ccc(C(=O)NCc3c(F)cc(F)cc3F)cc2N(Cc2c(F)ccc(O)c2Cl)C1=O` (stereo not shown) [Compound 9, 4-(2-Chloro-6-fluoro-3-hydroxybenzyl)-2-methyl-3-oxo-N-(2,4,6-trifluorobenzyl)-3,4-dihydro-2H-benzo[b][1,4]thiazine-6-carboxamide], in assay [1], the EC50 was determined as 96 nM and the “activity against R232 STING, in words” value is on record as “sub-micromolar activity”. Further, on HAQ STING (THP-1 cells), the “activation of THP1 cells, in words” value is “sub-micromolar activity” and a half-maximal response (EC50) required 412 nM.
`CC1Sc2ccc(C(=O)NCc3c(F)cc(F)cc3F)cc2N(Cc2cc(F)cc(F)c2)C1=O` (stereo not shown) [Compound 10]: the EC50 was 421 nM in assay [1] and around 6000 nM at HAQ STING (THP-1 cells).
Regarding `CC1Sc2ncc(C(=O)NCc3cc4ccccc4o3)cc2N(Cc2cc(F)cc(F)c2)C1=O` (stereo not shown) [Compound 12, N-(Benzofuran-2-ylmethyl)-1-(3,5-difluorobenzyl)-3-methyl-2-oxo-2,3-dihydro-1H-pyrido[2,3-b][1,4]thiazine-7-carboxamide], the EC50 was 91 nM in assay [1] and around 8000 nM at HAQ STING (THP-1 cells).
`Cc1ccc2c(=O)c3cccc(CC(=O)O)c3oc2c1C` [DMXAA, 5,6 dimethyl xanthenone 4-acetic acid]: the “activation of human STING variants” value in the assay on human STING is on record as “does not activate”.

Usually EC50 stands for the concentration at which the effect is half-maximal.
